Experimental data published in a melting point compilation (Tetko et al.; mined from patent text by program, amines drawn as free bases though some values may be those of a salt).

Compared with `CC1(C)Oc2cc(N)c(C#N)cc2[C@@H](N2CCCC2)[C@@H]1O` (relative stereo), `Cc1nn(-c2ccc(C#N)c(Cl)c2)c(C)c1Oc1ccc(C(=O)N2CCOCC2)cc1` is lower in melting point: 158 to 160 °C for the first, 156 to 157 °C for the second.

First: Cc1c(SC(=S)N(C)C)sn(-c2ccccc2)c1=O
Second: CC1CC(c2ccccc2)(N(C)C)CCC1=O (stereo not drawn)
The melting point of the first is higher: 158 to 160 °C for the first, 50 °C for the second.

First: COCCC1(C(=O)N[C@@H](Cc2ccc(NC(=O)c3cc(C#N)ccc3Cl)cc2)C(=O)OC)CCCC1
Second: CCCCN1CC2CN(S(=O)(=O)c3ccc(NC(=O)c4ccc(C#N)cc4)cc3)CC(C1)C2(C)C
The melting point of the first is higher: 172 to 175 °C for the first, 145 °C for the second.

First: Nc1n[nH]c2c(F)cccc12
Second: NC(=O)c1ccc(C(F)(F)F)nc1N
The melting point of the first is lower: 170 °C for the first, 227 to 229 °C for the second.

First: COC(=O)C1=C(C)NC(CC(=O)N2CCN(C3CCC4CCC3C4)CC2)=C(C(=O)OC)C1c1c(Cl)cccc1Cl (stereo not drawn)
Second: N#Cc1ccc(C(=O)N2CCN(C(=O)[C@@H]3CCCN3S(=O)(=O)c3ccc(Cl)c(CBr)c3Cl)CC2)cc1
The melting point of the first is higher: 197 to 207 °C for the first, 115 °C for the second.

Compared with `CCOC12CCC(=O)CC13CCN(C)C2Cc1ccc(OC)cc13` (stereo not drawn), `CCOC(=O)c1sc(Oc2ccc(C(C)=O)c(O)c2)c2c1CCc1cnn(C)c1-2` is lower in melting point: 171 to 173 °C for the first, 131 to 132 °C for the second.

Compared with `COc1ccccc1-n1c(=O)[nH]c2c(C(N)=O)nc(Nc3ccc(O)cc3)nc21`, `CC(Oc1ccc(Nc2cnc3cc(Cl)ccc3c2)cc1)C(=O)O` (stereo not drawn) is lower in melting point: 223 to 224 °C for the first, 150 °C for the second.

First: c1ccc(C2NCCOC2c2ccccc2)cc1 (stereo not drawn)
Second: c1ccc(CNc2nccc3ccccc23)cc1
The melting point of the first is lower: 70 to 72 °C for the first, 101 to 102 °C for the second.

First: O=S(=O)(c1ccccc1)c1c[nH]c2cccc(CCO)c12
Second: CCOC(=O)c1cc(NCc2ccccc2)c(Oc2ccccc2)c(S(=O)(=O)N(C)C)c1
The melting point of the first is lower: 55 to 60 °C for the first, 154 to 155 °C for the second.

First: COc1cccc(C2=C(C#N)C(c3ccccc3[N+](=O)[O-])c3c[nH]nc3N2)c1 (stereo not drawn)
Second: O=C(Cl)C=C(c1ccccc1)c1ccc([N+](=O)[O-])cc1
The melting point of the first is higher: 220 °C for the first, 117 to 120 °C for the second.

First: CC(N1CCN(c2ncn(Cc3ccc(C(F)(F)F)cc3)n2)CC1)C(O)(Cn1cncn1)c1ccc(F)cc1F (stereo not drawn)
Second: Cc1nc(NC(=O)c2cnn3c(C(F)F)cc(-c4ccc(C(F)(F)F)cc4)nc23)sc1S(=O)(=O)N1CCN(C)CC1
The melting point of the first is lower: 69 to 72 °C for the first, 269 °C for the second.

First: COc1cc2ncc(C#N)c(Nc3cccc(C(=O)O)c3C)c2cc1OC
Second: COc1cc2nc(N3CCN(C(=O)CC(O)c4ccccc4)CC3)nc(N)c2cc1OC (stereo not drawn)
The melting point of the first is higher: 242 to 245 °C for the first, 222 °C for the second.

Compared with `Oc1ccc(Oc2cccc(C(F)(F)F)n2)cc1`, `COc1ccc(Oc2cccc3ncnc(NC(C)=O)c23)cc1` is higher in melting point: 94 to 95 °C for the first, 174 to 175 °C for the second.

First: Cc1nc(-c2ccc(C(F)(F)F)cc2)sc1C(=O)Nc1cc(Cl)ccc1-c1nnn[nH]1
Second: CCn1c2cc(C(F)(F)F)ccc2c2oc(C(=O)Cl)cc21
The melting point of the first is higher: 325 to 337 °C for the first, 124 to 126 °C for the second.

Compared with `CC(C)(C)OC(=O)N1CCC(N2C(=O)OCc3ccccc32)CC1`, `Cc1cc(NC(=O)OC(C)(C)C)c(N)cc1-c1ccccc1` is lower in melting point: 143 to 145 °C for the first, 122 °C for the second.

First: CC(=NOCCOc1ccc(CC2SC(=O)NC2=O)cc1)c1ccc(O)cc1 (stereo not drawn)
Second: CC(C)(C)OC(=O)c1ccc(OCCCCl)cc1
The melting point of the first is higher: 157 to 159 °C for the first, 57.5 to 58.5 °C for the second.

Compared with `COC(=O)C[C@H]1C[C@@H](C=Cc2ccccc2)OC(C)(C)O1` (relative stereo), `CCOc1ccccc1-c1ncc(C(=O)O)c(=O)[nH]1` is higher in melting point: 84 to 86.5 °C for the first, 168 to 184 °C for the second.

Compared with `NC(=O)c1cnn(-c2ncc(C(F)(F)F)cc2Cl)c1N`, `Cc1cc(Oc2ncc(C(F)(F)F)cc2Cl)nn1C(=O)OC(C)(C)C` is lower in melting point: 196 °C for the first, 90 to 92 °C for the second.

Compared with `Cn1c(Br)nc2c([N+](=O)[O-])cc(Br)cc21`, `CC(C)(O)Cn1cnc2c(N)nc3cc(Br)ccc3c21` is higher in melting point: 235 to 236 °C for the first, over 250 °C for the second.

First: Nc1sc2c(c1C(=O)c1cc3ccccc3o1)CCC2
Second: CCOC(=O)c1ccc2c(c1)CCC(Cc1cnc(N)s1)C2 (stereo not drawn)
The melting point of the first is lower: 126 to 129 °C for the first, 150 to 153 °C for the second.

Compared with `CCOc1ccc2c(=O)c(C(=O)O)cn(CCO)c2n1`, `CCCc1ccc(C(=O)O)c(C(=O)O)n1` is lower in melting point: 220 °C for the first, 149 to 153 °C for the second.

First: CCCCc1c2c(nn1CCCC)c(N)nc1ccccc12
Second: CCCCc1ccc(OC)c(-c2csc(N)n2)c1
The melting point of the first is higher: 143 to 145 °C for the first, 48 °C for the second.

Compared with `Brc1ccc(N2CCCN(c3ccc(Br)cn3)CC2)nc1`, `Clc1ccc(-n2nc3c(c2Cl)CCCCC3)cc1` is lower in melting point: 178 to 181 °C for the first, 59 to 61 °C for the second.

First: O=C(O)c1cc(-n2c(-c3ccccc3)cc3c2CCc2cc(Cl)ccc2-3)ccc1O
Second: O=C(CCl)Nc1ccc2c(c1NC(=O)c1ccc(Cl)cc1)C(=O)c1ccccc1C2=O
The melting point of the first is higher: 249 to 251 °C for the first, 224 to 225 °C for the second.

First: C=CCOc1ccc2cc(O)ccc2c1
Second: CCOCc1c2ccccc2cc2ccccc12
The melting point of the first is higher: 92 to 93 °C for the first, 74 to 75 °C for the second.

First: O=C(Cn1ccnc1)c1nccs1
Second: CCOC(=O)c1nccn1C1Cc2ccc(Cl)cc2C1=O (stereo not drawn)
The melting point of the first is lower: 109 to 112 °C for the first, 180 °C for the second.

First: CCOc1ccccc1CNc1c(C#N)ccnc1C(N)=O
Second: COc1ccccc1Cc1ccc(Cl)nn1
The melting point of the first is higher: 150 to 152 °C for the first, 63 °C for the second.

Compared with `Brc1ccc(N(Cc2ccccc2)Cc2ccccc2)cc1`, `O=C(O)C(Cc1ccccc1)c1ccc2ccn(Cc3ccccc3)c2c1` (stereo not drawn) is higher in melting point: 123 °C for the first, 148 to 150 °C for the second.

Compared with `O=C(CCCN1CCC2(CC(O)c3cc(F)ccc32)C1)c1ccc(F)cc1` (stereo not drawn), `CC(C)N1Cc2cc(C(=O)O)ccc2N(CCN2CC=C(c3c[nH]c4cc(F)ccc34)CC2)S1(=O)=O` is higher in melting point: 143 to 145 °C for the first, 193 to 194 °C for the second.

First: N=C(Nc1ccc(C(=O)O)cc1)Nc1nc(-c2ccccc2)cs1
Second: Cc1ccc(-c2nc(C)c3ccccc3n2)nc1-c1ccccc1
The melting point of the first is higher: 245 to 247 °C for the first, 141 to 143 °C for the second.

First: CC(C)C[C@H](NC(=O)OCC1CCCCC1)C(=O)NC(C)(C)C(=O)c1c(-c2ccccc2)c1=O
Second: O=C(NCC1Cc2cc(Cl)cc(-c3ccsc3)c2O1)OCc1ccccc1 (stereo not drawn)
The melting point of the first is lower: 42 to 49 °C for the first, 90 to 92 °C for the second.

First: CC(C)=CCC(O)C(C)C1CC=C2C3=C(CCC21C)C1(C)CCC(O)C(C)(C)C1CC3 (stereo not drawn)
Second: CCN1C[C@@H](O)[C@H](N(C(=O)c2ccc(Cl)cc2)C2CCCCC2)C1 (relative stereo)
The melting point of the first is lower: 70 to 72 °C for the first, 111 to 116 °C for the second.

Compared with `N[C@H]1CC[C@H](Nc2ccnc3cc(C(F)(F)F)ccc23)CC1`, `Cn1c(=O)c2ncn3c2n(c1=O)CC=C3c1cccc(C(F)(F)F)c1` is higher in melting point: 186 °C for the first, 287 to 290 °C for the second.

Compared with `O=c1[nH]c2ccccc2n1CCN1CCNCC1`, `CC(C)CCN1CNC(=O)C12CCN(Cc1ccccc1)CC2` is higher in melting point: 123 °C for the first, 139 to 140 °C for the second.

First: CN1CCN(CCNc2ncnc3c2sc2nc(N4CCCC4)c4c(c23)CC(C)(C)OC4)CC1
Second: O=C(CCN1CCCC1)Nc1cc(-c2nnc(SCc3cccc(F)c3)o2)ccn1
The melting point of the first is lower: 97.5 to 98.8 °C for the first, 114 to 115 °C for the second.

Compared with `O=C(c1ccc(C(=O)N2CCC[C@@H]3CCCC[C@H]32)cc1)N1CCCCC1` (relative stereo), `Cc1ccccc1C(=O)Nc1ccc(C(=O)N2Cc3ccccc3Cc3ccccc32)cc1` is higher in melting point: 136 to 137 °C for the first, 198 to 203 °C for the second.

First: CCCC1CCC(c2cc(F)c(C(F)(F)Oc3ccc(-c4cc(F)c(C(F)(F)F)c(F)c4)c(F)c3)c(F)c2)OC1 (stereo not drawn)
Second: CCC(O)(CC)c1ccc(Cl)c2nc3n(c12)CCCN3c1ccc(Cl)cc1C(F)(F)F
The melting point of the first is lower: 95 °C for the first, 178 to 180 °C for the second.

First: Cc1cccc(C(=O)Nc2c[nH]nc2C(=O)NCCF)n1
Second: Cc1c(Cl)cccc1NC(=O)C(C)(C)C
The melting point of the first is higher: 220 to 221 °C for the first, 113 to 114 °C for the second.

Compared with `O=C1C=C(c2c(-c3ccccc3)nn3ccccc23)CCN1`, `O=C1Cc2ccccc2C(=O)N1Cc1ccccc1F` is lower in melting point: 188 to 189 °C for the first, 140 to 144 °C for the second.

First: COCc1cc(O)n2nc(SCc3ccccc3)nc2n1
Second: CC(C)(C)c1cc(-c2nn(Cc3ccccc3)c3ncccc23)cc(C(C)(C)C)c1O
The melting point of the first is higher: 213 °C for the first, 155 to 157 °C for the second.

First: [N-]=[N+]=CC(=O)c1ccc(Br)c(S(N)(=O)=O)c1
Second: CC(C)(C)CNC(=O)c1ccc(Br)c(C(=O)O)c1
The melting point of the first is lower: 152 °C for the first, 176 to 179 °C for the second.

First: CC(C)N(C(C)C)P(N)(N)=S
Second: CC(C)c1cccc(C(C)C)c1NC(=O)NCC(c1ccccc1)c1ccccc1
The melting point of the first is lower: 93 to 98 °C for the first, 175 to 176 °C for the second.

First: CCCCCCCCCCCCCCCCc1cc(OC)nc(N(C)C)n1
Second: CCCCCCCCC(=N)NC(=S)Nc1ccc(Cl)cc1
The melting point of the first is lower: 49 to 50 °C for the first, 102 to 103 °C for the second.

First: CCCCOc1cc(C(CC(=O)OC)N2C(=O)c3ccccc3C2=O)ccc1OC (stereo not drawn)
Second: CNc1cc(N)c(CCCN)c2c1C(=O)c1ccccc1C2=O
The melting point of the first is lower: 54 to 55 °C for the first, 142 °C for the second.

First: O=C(c1cccs1)c1cnn2c(-c3cccc(NC(=S)Nc4cccc(-c5ccnc6c(C(=O)c7cccs7)cnn56)c4)c3)ccnc12
Second: Cc1ccc(C(=O)NC(NC(=S)Nc2cccnc2)C(C)(C)C)cc1 (stereo not drawn)
The melting point of the first is lower: 151 to 153 °C for the first, 168 to 169 °C for the second.

First: O=C1c2ccccc2-n2c1nc1ccc(Br)cc1c2=O
Second: O=c1cc(-c2ccccc2)[nH]c(=S)[nH]1
The melting point of the first is higher: 315 to 316 °C for the first, 266 to 267 °C for the second.

First: CC(C)(C)OC(=O)[C@H]1N=CSC[C@]1(O)C(F)(F)F
Second: CN(C)c1c(F)c(F)c(F)c2c1c(=O)c(C(=O)O)cn2C1COC1
The melting point of the first is lower: 126 to 128 °C for the first, 173 to 175 °C for the second.

First: COCNC(=O)c1snc(Cl)c1Cl
Second: CCc1ccc(C(CC(=O)O)C(=O)O)s1 (stereo not drawn)
The melting point of the first is lower: 79 to 87 °C for the first, 165 to 166 °C for the second.

Compared with `COc1ccc(C(=O)Cc2ccncc2)c2c1OCC2C` (stereo not drawn), `Cc1c(C(=O)O)sc2cc(Cc3cccnc3)ccc12` is higher in melting point: 111 to 117 °C for the first, 250 to 252 °C for the second.

Compared with `c1cc(OCC2CO2)c2nonc2c1` (stereo not drawn), `OCc1cc(N2CCOCC2)c(F)cn1` is higher in melting point: 75 °C for the first, 134 to 136 °C for the second.

Compared with `CCCCn1c(=O)[nH]c(=S)c2[nH]c(CC)nc21`, `Cc1cc(O)c([N+](=O)[O-])c(=O)n1CC(=O)O` is lower in melting point: 206 to 207 °C for the first, 205 °C for the second.

`NS(=O)(=O)NC(=O)CNC(=O)NCCCCC1CCSS1` (stereo not drawn) gave a melting point of 143 to 145 °C.
